Test results taken from ChEMBL document CHEMBL1138162, “Phenyl ureas of creatinine as mGluR5 antagonists. A structure-activity relationship study of fenobam analogues” (Bioorg Med Chem Lett, 2006).

Species on record: Rattus norvegicus
Assay: Clearance in rat
Format: ADME, organism-based
Conditions: in vivo; call rule not given here

CL	SMILES
50 µL/min/mg	CN1CC(=O)N=C1NC(=O)Nc1cccc(Cl)c1 [FENOBAM ANHYDROUS]

Species on record: Homo sapiens
Assay: Clearance in human
Format: ADME, organism-based
Conditions: in vivo

CL	SMILES
50 µL/min/mg	CN1CC(=O)N=C1NC(=O)Nc1cccc(Cl)c1 [FENOBAM ANHYDROUS]

Biological target: Metabotropic glutamate receptor 5 (Homo sapiens, UniProt P41594)
Assay: Inhibition of glutamate-induced calcium influx in human mGluR5d by FLIPR
Format: functional
Conditions: not given

Metabotropic glutamate receptor 5 (Homo sapiens, UniProt P41594), sequence (P41594 whole entry): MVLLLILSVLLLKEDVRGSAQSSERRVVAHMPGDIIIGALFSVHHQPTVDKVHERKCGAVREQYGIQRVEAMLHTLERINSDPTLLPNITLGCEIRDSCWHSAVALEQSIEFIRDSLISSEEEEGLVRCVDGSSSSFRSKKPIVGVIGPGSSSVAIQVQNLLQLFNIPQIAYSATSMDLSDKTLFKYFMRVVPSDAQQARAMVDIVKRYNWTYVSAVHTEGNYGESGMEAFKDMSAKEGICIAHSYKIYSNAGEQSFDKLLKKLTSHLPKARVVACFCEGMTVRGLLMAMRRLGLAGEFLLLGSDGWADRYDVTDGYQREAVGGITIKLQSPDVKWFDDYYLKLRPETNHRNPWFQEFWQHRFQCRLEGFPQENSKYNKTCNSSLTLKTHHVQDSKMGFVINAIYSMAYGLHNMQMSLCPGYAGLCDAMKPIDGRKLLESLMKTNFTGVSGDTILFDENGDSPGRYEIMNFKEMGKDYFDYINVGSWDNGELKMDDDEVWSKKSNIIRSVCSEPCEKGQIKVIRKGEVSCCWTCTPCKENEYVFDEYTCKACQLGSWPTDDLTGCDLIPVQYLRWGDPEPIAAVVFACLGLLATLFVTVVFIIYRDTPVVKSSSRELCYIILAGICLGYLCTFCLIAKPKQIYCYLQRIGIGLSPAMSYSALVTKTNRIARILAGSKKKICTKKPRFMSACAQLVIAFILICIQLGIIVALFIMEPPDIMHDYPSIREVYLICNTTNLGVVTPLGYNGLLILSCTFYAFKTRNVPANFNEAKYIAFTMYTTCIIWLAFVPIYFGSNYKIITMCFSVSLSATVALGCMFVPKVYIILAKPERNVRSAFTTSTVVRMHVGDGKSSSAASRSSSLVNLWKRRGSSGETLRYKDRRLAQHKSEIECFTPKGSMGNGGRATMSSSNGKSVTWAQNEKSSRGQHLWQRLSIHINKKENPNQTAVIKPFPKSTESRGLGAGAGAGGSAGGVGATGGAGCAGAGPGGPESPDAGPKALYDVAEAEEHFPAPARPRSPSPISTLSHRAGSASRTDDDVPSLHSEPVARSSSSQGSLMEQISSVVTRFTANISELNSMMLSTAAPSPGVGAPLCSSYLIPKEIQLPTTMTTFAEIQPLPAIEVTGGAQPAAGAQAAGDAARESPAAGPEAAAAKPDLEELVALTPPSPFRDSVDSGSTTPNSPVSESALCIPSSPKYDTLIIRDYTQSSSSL

IC50	SMILES
Not Active	CN1CC(=O)N=C1NC(=O)Cc1cccc(Cl)c1

Same assay, conditions: read-out: IC50

IC50	SMILES
0.8 µM	O=C(NC1=NC(=O)C2CCCN12)Nc1cccc(Cl)c1 (stereo not given)
4.2 µM	O=C(NC1=NC(=O)C2CCCN12)Nc1ccccc1 (stereo not given)
0.25 µM	CCN1CC(=O)N=C1NC(=O)Nc1cccc(Cl)c1
0.26 µM	CN1CCS/C1=N\C(=O)Nc1cccc(Cl)c1
0.41 µM	CCN1C(NC(=O)Nc2cccc(Cl)c2)=NC(=O)C1C (stereo not given)
> 10 µM	Cc1cccc(NC(=O)NC2=NC(=O)C3CCCN23)c1C (stereo not given)
> 10 µM	Cc1ccc(C)c(NC(=O)NC2=NC(=O)C3CCCN23)c1 (stereo not given)
0.68 µM	CCCCN1CC(=O)N=C1NC(=O)Nc1cccc(Cl)c1
> 10 µM	CN1C(=O)CN=C1NC(=O)Nc1cccc(Cl)c1
> 10 µM	Cn1ccnc1NC(=O)Nc1cccc(Cl)c1
> 10 µM	Cc1ccc(NC(=O)NC2=NC(=O)C3CCCN23)cc1Cl (stereo not given)
> 10 µM	Cc1ccccc1NC(=O)NC1=NC(=O)C2CCCN12 (stereo not given)
> 10 µM	O=C(NC1=NC(=O)C2CCCN12)Nc1ccc(Cl)cc1 (stereo not given)
2.8 µM	COc1cccc(NC(=O)NC2=NC(=O)CN2C)c1
0.55 µM	Cc1cccc(NC(=O)NC2=NC(=O)CN2C)c1
3.9 µM	CN1CC(=O)N=C1NC(=O)Nc1cccc(C#N)c1
0.38 µM	CN1CC(=O)N=C1NC(=O)Nc1cccc(Br)c1
4.9 µM	CN1CC(=O)N/C1=N\C(=O)Nc1ccccc1
> 10 µM	CCCCCCNC(=O)NC1=NC(=O)CN1C
> 10 µM	CN1CC(=O)N=C1NC(=O)Nc1cc(Cl)cc(Cl)c1
0.49 µM	CC1C(=O)N=C(NC(=O)Nc2cccc(Cl)c2)N1C (stereo not given)
0.62 µM	CN1CCC/C1=N\C(=O)Nc1cccc(Cl)c1
1.4 µM	Cc1cccc(NC(=O)NC2=NC(=O)C(c3ccccc3)N2C)c1 (stereo not given)
1.9 µM	Cc1cccnc1NC(=O)NC1=NC(=O)CN1C
3.1 µM	Cc1ccc(NC(=O)NC2=NC(=O)CN2C)nc1
4.9 µM	CN1CC(=O)N=C1NC(=O)Nc1cccs1
2.3 µM	CN1CC(=O)N=C1NC(=O)c1cccc(Cl)c1
> 10 µM	COC(=O)c1cccc(NC(=O)NC2=NC(=O)CN2C)c1
0.33 µM	CN1CC(=O)N=C1NC(=O)Nc1cccc(Cl)c1 [FENOBAM ANHYDROUS]
> 10 µM	Cc1cccc(C)c1NC(=O)/N=C1\CCCN1C [XILOBAM]

Biological target: Metabotropic glutamate receptor 5 (Rattus norvegicus, UniProt P31424)
Assay: Displacement of [3H]MPEP from mGluR5d in rat brain membrane
Format: cell membranes
Conditions: not given

Metabotropic glutamate receptor 5 (Rattus norvegicus, UniProt P31424), sequence (P31424 whole entry): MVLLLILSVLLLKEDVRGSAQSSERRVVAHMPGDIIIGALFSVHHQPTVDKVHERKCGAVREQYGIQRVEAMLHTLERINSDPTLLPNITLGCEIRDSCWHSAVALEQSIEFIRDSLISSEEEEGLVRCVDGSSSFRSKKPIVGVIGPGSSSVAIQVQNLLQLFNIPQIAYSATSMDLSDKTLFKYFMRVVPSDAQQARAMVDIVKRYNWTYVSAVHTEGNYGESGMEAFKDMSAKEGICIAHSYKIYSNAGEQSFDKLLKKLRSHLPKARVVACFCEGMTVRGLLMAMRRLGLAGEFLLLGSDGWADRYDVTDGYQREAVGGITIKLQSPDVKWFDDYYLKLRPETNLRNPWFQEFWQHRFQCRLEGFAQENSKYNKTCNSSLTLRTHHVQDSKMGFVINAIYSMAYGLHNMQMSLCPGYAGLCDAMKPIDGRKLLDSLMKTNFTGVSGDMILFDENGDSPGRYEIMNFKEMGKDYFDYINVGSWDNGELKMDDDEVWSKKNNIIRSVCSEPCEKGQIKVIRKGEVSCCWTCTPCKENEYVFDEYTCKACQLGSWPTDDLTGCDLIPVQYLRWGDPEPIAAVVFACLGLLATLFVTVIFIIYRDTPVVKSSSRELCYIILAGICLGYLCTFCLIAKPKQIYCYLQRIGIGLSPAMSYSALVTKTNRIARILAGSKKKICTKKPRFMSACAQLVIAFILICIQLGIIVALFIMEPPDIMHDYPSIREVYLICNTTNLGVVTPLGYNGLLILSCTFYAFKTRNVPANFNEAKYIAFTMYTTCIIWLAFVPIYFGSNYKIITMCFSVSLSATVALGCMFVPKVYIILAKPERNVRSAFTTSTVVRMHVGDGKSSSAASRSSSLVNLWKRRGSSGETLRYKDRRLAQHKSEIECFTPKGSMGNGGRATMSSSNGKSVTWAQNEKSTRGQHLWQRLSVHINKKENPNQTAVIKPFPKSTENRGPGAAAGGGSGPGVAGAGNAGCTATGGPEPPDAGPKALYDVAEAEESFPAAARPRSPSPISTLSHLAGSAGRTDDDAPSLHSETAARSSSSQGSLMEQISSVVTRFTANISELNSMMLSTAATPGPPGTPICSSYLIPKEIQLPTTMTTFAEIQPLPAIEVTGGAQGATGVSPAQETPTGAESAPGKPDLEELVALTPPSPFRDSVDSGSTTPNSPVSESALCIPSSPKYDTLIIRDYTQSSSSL

IC50	SMILES
1.6 µM	O=C(NC1=NC(=O)C2CCCN12)Nc1cccc(Cl)c1 (stereo not given)
0.18 µM	CCN1CC(=O)N=C1NC(=O)Nc1cccc(Cl)c1
1.2 µM	CN1CCS/C1=N\C(=O)Nc1cccc(Cl)c1
0.32 µM	CCN1C(NC(=O)Nc2cccc(Cl)c2)=NC(=O)C1C (stereo not given)
1.3 µM	CCCCN1CC(=O)N=C1NC(=O)Nc1cccc(Cl)c1
> 10 µM	CN1C(=O)CN=C1NC(=O)Nc1cccc(Cl)c1
> 10 µM	Cn1ccnc1NC(=O)Nc1cccc(Cl)c1
3.4 µM	CN1CC(=O)N=C1NC(=O)Nc1cccc(C#N)c1
1.3 µM	CC1C(=O)N=C(NC(=O)Nc2cccc(Cl)c2)N1C (stereo not given)
2 µM	CN1CCC/C1=N\C(=O)Nc1cccc(Cl)c1
> 10 µM	Cc1cccc(NC(=O)NC2=NC(=O)C(c3ccccc3)N2C)c1 (stereo not given)
0.46 µM	CN1CC(=O)N=C1NC(=O)Nc1cccc(Cl)c1 [FENOBAM ANHYDROUS]
